Results published in US9180156B2, “Composition for controlling increase in blood glucose” (priority 2008, dated 2015).

Legend:
U937 cells = settings: cited from earlier work
[1] = Intraperitoneal glucose tolerance test (IPGTT) in rats; assay type: in vivo, rat; settings: catechin 10 mg/kg i.v. 30 min before glucose 2.0 g/kg i.p.; 12-h fasted rats (FIG. 2)
Method: Sprague-Dawley rats were provided by Hyochang Science Co. (Seoul, Korea). After a 12-h fast, rats were anesthetized using pentobarbital sodium (40 mg/kg, i.p.; Nembutal, 50 mg/ml, Hanlim Pharmaceutical Co., Seoul, Korea) and then injected with one of the epicatechins: EGCG, EGC, ECG, and EC (each 10 mg/kg in 300 μl PBS, i.v.). EC was dissolved in a minute amount of DMSO in advance before addition of PBS. In another experiment, rats were randomly divided into 3 groups: control, GTE and GTE-GC. The rats in the GTE group were injected with natural GTE (100 mg/kg in 300 μl PBS, i.v.; 10 mg/kg as EGCG) through the tail vein, while the control rats were injected with only 300 μl PBS and rats in the GTE-GC group were given an equal amount of GC-deficient GTE (100 mg/kg in 300 μl PBS, i.v.; 2.6 mg/kg as EGCG). Thirty minutes after the injection, glucose (2.0 g/kg in 600 μl distilled water, i.p.) was injected. For OGTT, the rats were ingested with 1-ml distilled water only (control), or 1-ml distilled water containing one of natural GTE (900 mg/kg), GC-deficient GTE (900 mg/kg), EGCG (90 mg/kg), natural GTE plus PEG (110 mg/100 mg EGCG) or PEG alone. Immediately after the ingestion, each rat was orally given 1-ml distilled water containing glucose (2 g/kg). For the assay of blood glucose levels, blood was drawn from the tail vein at the indicated times. All the experiments were approved by the Keimyung University institutional ethics committee, Daegu, Korea for supervising animal research.

INS-1 beta cells = test: Deoxyglucose uptake assay, INS-1; assay type: cell-based, rat; settings: EGCG 0.1, 1.0, 10 μM; with or without 100 nM insulin (FIG. 3D)
Method: (§1) Rat L6 myoblasts were cultured in low-glucose DMEM with 10% (v/v) FBS until they reached 80% confluency. To induce differentiation, cells were further cultured in DMEM (24.9 mM glucose) containing 2% FBS for 7 days. Cell viability was assessed by the trypan blue viability test. Myogenic differentiation to myotube status was evaluated both morphologically and biochemically. Mouse 3T3-L1 preadipocytes were grown to confluence at 37° C. in 35-mm culture dishes in DMEM containing 10% FCS with no added biotin or pantothenate in incubators equilibrated with 5% CO2. […] Cell differentiation was evaluated by the Oil red-0 staining. […]
(§2) Briefly, after serum starvation for 30 min, the cells were washed with Krebs-Ringer phosphate-HEPES buffer [KRPH buffer: 10 mM phosphate buffer, pH 7.4; 1 mM MgSO4, 1 mM CaCl2, 136 mM NaCl, 4.7 mM KCl, and 10 mM HEPES, pH 7.6] and then incubated with or without 100 nM insulin for 20 min in KRPH buffer that contained EGCG (0, 0.1, 1.0 or 10 μM). Glucose transport was determined by the addition of 2-deoxy-[^3H] glucose (0.1 mM, 0.5 μCi/ml; PerkinElmer Life and Analytical Science, Waltham, Mass.). […] The cells were then lysed in PBS containing 0.2 M NaOH, and glucose uptake was assessed by scintillation counting.

protein kinase B (PKB) [2] = test: Western blot of PKB phosphorylation, HepG2; assay type: cell-based, human; settings: up to 10 μM EGCG; with or without 100 nM insulin (FIG. 4B)
Method: (§3) Rat L6 myoblasts were cultured in low-glucose DMEM with 10% (v/v) FBS until they reached 80% confluency. To induce differentiation, cells were further cultured in DMEM (24.9 mM glucose) containing 2% FBS for 7 days. Cell viability was assessed by the trypan blue viability test. Myogenic differentiation to myotube status was evaluated both morphologically and biochemically. Mouse 3T3-L1 preadipocytes were grown to confluence at 37° C. in 35-mm culture dishes in DMEM containing 10% FCS with no added biotin or pantothenate in incubators equilibrated with 5% CO2. At two days post-confluence (day 0), differentiation was induced with methylisobutylxanthine (0.5 mM), dexamethasone (0.5 μM) and insulin (5 μg/ml) in DMEM containing 10% FBS. On day 2, methylisobutylxanthine and dexamethasone were removed and insulin treatment was continued for 2 additional days. On day 4 and thereafter, DMEM (without insulin supplementation) plus 10% FBS was replaced every 2 days. Cells (2×10^6 cells/dish) were used for experiments on day 8. Cell differentiation was evaluated by the Oil red-0 staining. Human hepatocellular carcinoma HepG2 cell line was maintained in DMEM containing 10% FBS at 37° C. […]

protein kinase B (PKB) [3] = test: Western blot of PKB phosphorylation, INS-1; assay type: cell-based, rat; settings: up to 10 μM EGCG; with or without 100 nM insulin (FIG. 4D)
[4] = Insulin tolerance test (ITT) in Kir6.2 k/o mice; assay type: in vivo, mouse
Method: (§4) Kir6.2 knock-out (k/o) mice were kindly provided by Prof. Susumu Seino at Kobe University in Japan. Following a 4-h fast, Kir6.2 k/o mice or normal rats were intravenously injected with PBS (100 μl for mouse, 300 μl for rat) only, or PBS containing EGCG (10 mg/kg), natural GTE (100 mg/kg) or GC-deficient GTE (100 mg/kg). Thirty minutes after the injection, the mice and rats were injected intraperitoneally with normal saline (300 μl for mouse, 600 μl for rat) containing insulin (1 IU/kg; INSULIN LISPRO, Eli Lilly, Ind.). Blood samplings were done through the tail vein at the indicated times.

[5] = tested on: differentiated L6 myoblasts; test: Deoxyglucose uptake assay, L6; assay type: cell-based, rat; settings: EGCG 0.1, 1.0, 10 μM; with or without 100 nM insulin (FIG. 3A)
Method: as §1, §2

protein kinase B (PKB) [6] = test: Western blot of PKB phosphorylation, 3T3-L1; assay type: cell-based, mouse; settings: up to 10 μM EGCG; with or without 100 nM insulin (FIG. 4C)
Method: as §3

[7] = 10 mg/kg i.v.; rats; cited from earlier work
OGTT in rats = assay type: in vivo, rat; settings: GC-deficient GTE 900 mg/kg or EGCG 90 mg/kg oral immediately before oral glucose; rats (FIG. 6D)
[8] = relatively long-term intraperitoneal application; rats; cited from earlier work
protein kinase B (PKB) [9] = test: Western blot of PKB phosphorylation, L6; assay type: cell-based, rat; settings: up to 10 μM EGCG; with or without 100 nM insulin (FIG. 4A)
Method: as §3

[10] = biological target: T1, glucose transporter type 1 (Homo sapiens, UniProt P11166); settings: red blood cells; read-out: concentration competing with glucose such that the reaction rate was half its maximal value; cited from earlier work
T1 construct: glucose transporter type 1 in red blood cells; host or cells: red blood cells (erythrocytes)
T1 sequence (P11166 1-492): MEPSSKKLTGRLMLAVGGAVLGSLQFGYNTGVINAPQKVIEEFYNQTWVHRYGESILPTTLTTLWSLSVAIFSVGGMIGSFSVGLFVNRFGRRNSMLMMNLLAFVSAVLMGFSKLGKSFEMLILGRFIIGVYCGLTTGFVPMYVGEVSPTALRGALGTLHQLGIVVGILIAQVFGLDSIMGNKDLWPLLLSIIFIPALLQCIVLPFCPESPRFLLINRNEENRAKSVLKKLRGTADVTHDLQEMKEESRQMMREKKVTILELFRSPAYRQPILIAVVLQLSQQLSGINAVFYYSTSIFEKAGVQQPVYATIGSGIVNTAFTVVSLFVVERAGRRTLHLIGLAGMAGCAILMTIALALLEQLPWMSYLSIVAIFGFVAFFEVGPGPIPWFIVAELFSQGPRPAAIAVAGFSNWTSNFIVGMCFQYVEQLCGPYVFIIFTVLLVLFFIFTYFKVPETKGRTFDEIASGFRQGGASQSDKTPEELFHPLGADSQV

[11] = Insulin tolerance test (ITT) in normal rats; assay type: in vivo, rat
Method: as §4, with “[…],” for “LISPRO, Eli Lilly,”

[12] = tested on: differentiated 3T3-L1 adipocytes; test: Deoxyglucose uptake assay, 3T3-L1; assay type: cell-based, mouse; settings: EGCG 0.1, 1.0, 10 μM; with or without 100 nM insulin (FIG. 3C)
Method: as §1, §2

HepG2 hepatocytes = test: Deoxyglucose uptake assay, HepG2; assay type: cell-based, human; settings: EGCG 0.1, 1.0, 10 μM; with or without 100 nM insulin (FIG. 3B)
Method: as §1, §2

O=c1c(O)c(-c2ccc(O)c(O)c2)oc2cc(O)cc(O)c12 [quercetin]
concentration that inhibits cellular glucose uptake (U937 cells): around 10 μM

Oc1cc(O)c2c(c1)O[C@H](c1cc(O)c(O)c(O)c1)[C@H](O)C2 [EGC, epigallocatechin]
blood glucose levels 30 min after glucose loading vs control [1]: no effects

Epigallocatechin-3-gallate [EGCG]
basal and insulin-stimulated 2-deoxy-[3H]-glucose uptake (INS-1 beta cells): decreased by EGCG dose-dependently
basal and insulin-regulated expression of phospho-PKB (protein kinase B (PKB) [2]): did not alter
basal and insulin-regulated expression of phospho-PKB (protein kinase B (PKB) [3]): did not alter
rate of blood glucose disappearance when treated with insulin ([4]; EGCG 10 mg/kg i.v. 30 min before insulin 1 IU/kg i.p., Kir6.2 k/o mice, P<0.01 (FIG. 5D)): delayed mildly but significantly
blood glucose levels 30 min after injection ([4]; EGCG 10 mg/kg i.v., 4-h fasted Kir6.2 k/o mice, P<0.01 (FIG. 5B)): significant elevation
basal and insulin-stimulated 2-deoxy-[3H]-glucose uptake [5]: decreased by EGCG dose-dependently
basal and insulin-regulated expression of phospho-PKB (protein kinase B (PKB) [6]): did not alter
blood concentration at 30 min after injection [7]: around 1 μM
inhibition of glucose absorption compared with the GTE-treated group (OGTT in rats): less efficiently
effect on body weight [8]: weight loss
effect on the sexual organs [8]: significant deterioration in the sexual organs
basal and insulin-regulated expression of phospho-PKB (protein kinase B (PKB) [9]): did not alter
blood glucose levels 30 min after glucose loading vs control [1]: more elevated
IC50 [10]: 1000 nM
rate of blood glucose disappearance when treated with insulin ([11]; EGCG 10 mg/kg i.v. 30 min before insulin 1 IU/kg i.p., rats, P<0.01 (FIG. 5C)): delayed mildly but significantly
blood glucose levels 30 min after injection ([11]; EGCG 10 mg/kg i.v., 4-h fasted normal rats, P<0.01 (FIG. 5A)): significant elevation
basal and insulin-stimulated 2-deoxy-[3H]-glucose uptake [12]: decreased by EGCG dose-dependently
basal and insulin-stimulated 2-deoxy-[3H]-glucose uptake (HepG2 hepatocytes): decreased by EGCG dose-dependently

O=c1c(O)c(-c2cc(O)c(O)c(O)c2)oc2cc(O)cc(O)c12 [myricetin]
concentration that inhibits cellular glucose uptake (U937 cells): around 10 μM

O=C(O[C@@H]1Cc2c(O)cc(O)cc2O[C@@H]1c1ccc(O)c(O)c1)c1cc(O)c(O)c(O)c1 [ECG, epicatechin-3-gallate]
blood glucose levels 30 min after glucose loading vs control [1]: more elevated
IC50 [10]: 100 nM
